# Experimental data as given in patent publication US11446315B2, “Enhancement of CD47 blockade therapy by proteasome inhibitors” (PF Argentum IP Holdings LLC, priority 2016, dated 2022).
# B1: vSIRPαFc: high affinity CV1 variant of V region of human SIRPα fused with mutated IgG4, SEQ ID No. 12 (protein, listed as Homo sapiens)
# chain: EEELQIIQPDKSVSVAAGESAILHCTITSLFPVGPIQWFRGAGPARVLIYNQRQGPFPRVTTVSETTKRENMDFSISISNITPADAGTYYCIKFRKGSPDTEFKSGAGTELSVRAKPSESKYGPPCPPCPAPPVAGPSVFLFPPKPKDTLMISRTPEVTCVVVDVSQEDPEVQFNWYVDGVEVHNAKTKPREEQFNSTYRVVSVLTVLHQDWLNGKEYKCKVSNKGLPSSIEKTISKAKGQPREPQVYTLPPSQEEMTKNQVSLTCLVKGFYPSDIAVEWESNGQPENNYKTTPPVLDSDGSFFLYSRLTVDKSRWQEGNVFSCSVMHEALHNHYTQKSLSLSLGK
# B2: CD47 mAb: CD47 monoclonal antibody B6H12, variable regions SEQ ID Nos. 13 and 14 (antibody, V domains shown)
# VH: EVQLVESGGDLVKPGGSLKLSCAASGFTFSGYGMSWVRQTPDKRLEWVATITSGGTYTYYPDSVKGRFTISRDNAKNTLYLQIDSLKSEDTAIYFCARSLAGNAMDYWGQGTSVTVSS
# VL: DIVMTQSPATLSVTPGDRVSLSCRASQTISDYLHWYQQKSHESPRLLIKFASQSISGIPSRFSGSGSGSDFTLSINSVEPEDVGVYYCQNGHGFPRTFGGGTKLEIK
# modifications: Murine
# Key:
# Assay type in all cases: cell-based, human
# [1] = tested on: SU-DHL-6 diffuse large cell lymphoma (DLBCL) cell line; assay: Macrophage phagocytosis assay, SU-DHL-6 tumor cells pre-cultured with proteasome inhibitor (FIGS. 3A-3F); conditions: SU-DHL-6 cultured 48 hours in bortezomib (10 nM), carfilzomib (10 nM) or ixazomib (25 nM); CD47 blockade drug at 100 nM, 2 hours co-culture; untreated vs proteasome inhibitor treated tumor cells, unpaired t-test
# Experimental: (§1) FIGS. 3A-3F show the effect of proteasome inhibition on phagocytosis mediated by CD47 blockade, from an experiment supplemental to that represented in FIGS. 1A-1B and 2A-2B. The diffuse large cell lymphoma (DLBCL) cell line SU-DHL-6 and the multiple myeloma (MM) cell line MM1.S were cultured in the presence or absence of the proteasome inhibitors bortezomib (10 nM), carfilzomib (10 nM) or ixazomib (25 nM) for 48 hours. Cells were thereafter washed; macrophages and SIRPαFc proteins, CD47 monoclonal antibody (CD47 mAb) or Control Fc (at 100 nM) were added, and the mixture was then subjected to the phagocytosis assay as described infra.
# (§2) To generate the results represented in FIGS. 3A-3F, macrophages were prepared from human peripheral blood mononuclear cells (PBMCs) obtained from healthy donors (BioreclamationIVT); informed consent was obtained from all donors. CD14+ monocytes were isolated by positive selection using the EasySep® human monocyte isolation kit (Stemcell Technologies). Monocytes were differentiated into macrophages by culturing the cells in X-VIVO 15 media (Lonza) supplemented with human m-CSF (PeproTech) for 10 days. Macrophages were primed with human IFNγ (PeproTech) one day prior to the phagocytosis assay. 48 hours prior to the phagocytosis assay, bortezomib (10 nM), carfilzomib (10 nM) or ixazomib (25 nM) were added to tumor cells. On the day of the phagocytosis assay, tumor cells (MM1.S or SU-DHL-6) were labeled with Violet Proliferation Dye 450 (BD Biosciences) and cultured with IFNγ-primed macrophages. Macrophages and tumor cells were co-cultured for 2 hours in the presence of 100 nM SIRPαFc (V region of human SIRPα variant 2 fused with IgG1 Fc), SIRPαFc (V region of human SIRPα variant 2 fused with IgG4 Fc), vSIRPαFc (high affinity CV1 variant of V region of human SIRPα fused with mutated IgG4) [SEQ ID No. 12], CD47 monoclonal antibody B6H12 [SEQ ID Nos. 13 and 14] or Control Fc (wild type human IgG4 with stabilized hinge). Cells were subsequently stained with a viability dye, APC-conjugated anti-human CD14 (61D3, eBioscience), and PE-conjugated anti-human CD11b (ICRF44, eBioscience). Macrophages were identified as live, single, CD14+CD11b+ cells. Doublets were excluded by SSC-W and SSC-H discrimination. Percent phagocytosis was assessed as the percent of macrophages that were VPD450+. Unpaired t-tests comparing the percentage of phagocytosis of untreated vs proteasome inhibitor treated tumor cells were performed (*P≤0.05, **P≤0.01, ***P≤0.001).
# [2] = tested on: MM1.S multiple myeloma (MM) cell line; assay: Macrophage phagocytosis assay, MM1.S tumor cells pre-cultured with proteasome inhibitor (FIGS. 3A-3F); conditions: MM1.S cultured 48 hours in bortezomib (10 nM), carfilzomib (10 nM) or ixazomib (25 nM); CD47 blockade drug at 100 nM, 2 hours co-culture; untreated vs proteasome inhibitor treated tumor cells, unpaired t-test
# Experimental: as §1, §2
# [3] = tested on: MM1s multiple myeloma cell line; assay: Macrophage phagocytosis assay, MM1s tumor cells pre-cultured with proteasome inhibitor (FIGS. 1A, 2A)
# Experimental: (§3) FIGS. 1A and 1B show results when the multiple myeloma cell lines MM1s and H929 are cultured in the presence of the proteasome inhibitor bortezomib (at either 1, 5 or 10 nM) for 48 hours. The 0 result represents phagocytosis of cells that were not treated with bortezomib. Cells are then washed; macrophages and SIRPαFc (at 1, 5 or 100 nM) or Control Fc are added and the mixture is then subjected to the phagocytosis assay described herein.
# (§4) FIGS. 2A and 2B show results from an experiment in which bortezomib is replaced by the proteasome inhibitor carfilzomib, which is then investigated as described in FIGS. 1A-1B. The 0 result represents phagocytosis of cells that were not treated with carfilzomib.
# (§5) To generate the results represented in FIGS. 1A-1B and 2A-2B, heparinized whole blood was obtained from normal healthy human donors (Biological Specialty Corporation) and informed consent was obtained from all donors. Peripheral blood mononuclear cells (PBMCs) were isolated over Ficoll-Paque Plus density gradient (GE Healthcare) and CD14+ monocytes were isolated from PBMCs by positive selection using CD14 antibody-coated MicroBead separation (Miltenyi Biotec). […] Phagocytosis was assessed as % VPD450+ cells of live, single CD14+CD11b+macrophages by flow cytometry. […]
# [4] = tested on: H929 multiple myeloma cell line; assay: Macrophage phagocytosis assay, H929 tumor cells pre-cultured with proteasome inhibitor (FIGS. 1B, 2B)
# Experimental: as §3, §4, §5
Molecule,Percent phagocytosis mediated by CD47 blockade (percent of macrophages VPD450+) [1],Percent phagocytosis mediated by CD47 blockade (percent of macrophages VPD450+) [2],"SIRPαFc-mediated phagocytosis (% VPD450+ of live, single CD14+CD11b+ macrophages) ([3]; MM1s cultured in 10 nM carfilzomib for 48 hours, at all concentrations of SIRPαFc tested (1, 5 or 100 nM), versus cells not treated with carfilzomib)","SIRPαFc-mediated phagocytosis (% VPD450+ of live, single CD14+CD11b+ macrophages) ([4]; H929 cultured in 10 nM carfilzomib for 48 hours, at all concentrations of SIRPαFc tested (1, 5 or 100 nM), versus cells not treated with carfilzomib)","SIRPαFc-mediated phagocytosis (% VPD450+ of live, single CD14+CD11b+ macrophages) ([3]; MM1s cultured in bortezomib (1, 5 or 10 nM) for 48 hours, then macrophages and SIRPαFc (1, 5 or 100 nM), versus cells not treated with bortezomib)","SIRPαFc-mediated phagocytosis (% VPD450+ of live, single CD14+CD11b+ macrophages) ([4]; H929 cultured in bortezomib (1, 5 or 10 nM) for 48 hours, then macrophages and SIRPαFc (1, 5 or 100 nM), versus cells not treated with bortezomib)"
SIRPαFc (V region of human SIRPα variant 2 fused with IgG4 Fc): V region of human SIRPα variant 2 fused with IgG4 Fc,significant increase in phagocytosis,significant increase in phagocytosis,–,–,–,–
CC(C)C[C@H](NC(=O)[C@H](CCc1ccccc1)NC(=O)CN1CCOCC1)C(=O)N[C@@H](Cc1ccccc1)C(=O)N[C@@H](CC(C)C)C(=O)[C@@]1(C)CO1 [carfilzomib],significantly increased SIRPαFc-mediated phagocytosis or CD47 mAb-mediated phagocytosis,significantly increased SIRPαFc-mediated phagocytosis or CD47 mAb-mediated phagocytosis,significant increase in SIRPαFc-mediated phagocytosis,significant increase in SIRPαFc-mediated phagocytosis,–,–
CC(C)C[C@H](NC(=O)CNC(=O)c1cc(Cl)ccc1Cl)B(O)O [ixazomib],significantly increased SIRPαFc-mediated phagocytosis or CD47 mAb-mediated phagocytosis,significantly increased SIRPαFc-mediated phagocytosis or CD47 mAb-mediated phagocytosis,–,–,–,–
CC(C)C[C@H](NC(=O)[C@H](Cc1ccccc1)NC(=O)c1cnccn1)B(O)O [bortezomib],significantly increased SIRPαFc-mediated phagocytosis or CD47 mAb-mediated phagocytosis,significantly increased SIRPαFc-mediated phagocytosis or CD47 mAb-mediated phagocytosis,–,–,increased SIRPαFc-mediated phagocytosis,increased SIRPαFc-mediated phagocytosis
B1,significant increase in phagocytosis,significant increase in phagocytosis,–,–,–,–
B2,significant increase in phagocytosis,significant increase in phagocytosis,–,–,–,–
